Assay in all cases: relative viability (nuclei count vs DMSO), 5 days (fraction); higher = more cells survive
Compound in assay [1]: NC(=O)c1ccc(N(C(N)=O)c2c(F)cccc2F)nc1-c1ccc(F)cc1F [VX-702] + Nc1nc2[nH]cc(CCc3ccc(C(=O)N[C@@H](CCC(=O)O)C(=O)O)cc3)c2c(=O)[nH]1 [Pemetrexed] (partner 0.2 µM)
The gist of the method: (§1)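 Values are medians from duplicate plates. Each reflects relative viability, defined as the nuclei count of treated wells over that of vehicle wells. Lung cancer cell lines in 1536-well plates were pin-tool dosed one day after seeding with one drug alone or with a fixed anchor-drug dose plus five library-drug doses (not always all listed) in √10 steps, then fixed, stained and imaged at 4× after 5 days.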

Compound in assay [2]: CC(C)(C)c1nc(-c2cccc(NS(=O)(=O)c3c(F)cccc3F)c2F)c(-c2ccnc(N)n2)s1 [Dabrafenib] + CC(=O)c1c(C)c2cnc(Nc3ccc(N4CCNCC4)cn3)nc2n(C2CCCC2)c1=O [Palbociclib] (partner 0.5 µM)
The gist of the method:
as §1

Compound in assay [3]: CC(C)(C)c1nc(-c2cccc(NS(=O)(=O)c3c(F)cccc3F)c2F)c(-c2ccnc(N)n2)s1 [Dabrafenib] + Cc1nc(NC(=O)N2CCC[C@H]2C(N)=O)sc1-c1ccnc(C(C)(C)C(F)(F)F)c1 [Alpelisib] (partner 2 µM)
The gist of the method: as §1

Compound in assay [4]: NC(=O)c1ccc(N(C(N)=O)c2c(F)cccc2F)nc1-c1ccc(F)cc1F [VX-702] + CS(=O)(=O)N1CCN(Cc2cc3nc(-c4cccc5[nH]ncc45)nc(N4CCOCC4)c3s2)CC1 [Pictilisib] (partner 1 µM)
The gist of the method:
as §1

For NCI-H2228, the relative viability in assay [1] (first compound 0.02 µM) was found to be 0.338; in assay [1] (first compound 0.2 µM), 0.336; in assay [1] (first compound 0.6325 µM) it was 0.37; in assay [1] (first compound 2 µM), 0.342; in assay [2] (first compound 0.003 µM), 0.502; in assay [2] (first compound 0.009487 µM), 0.801. For the same cell line, the relative viability in assay [2] (first compound 0.03 µM) was 0.753; in assay [2] (first compound 0.09487 µM) it was 0.668; in assay [2] (first compound 0.3 µM), 0.7; in assay [3] (first compound 0.003 µM) it was 0.585; in assay [3] (first compound 0.009487 µM), 0.858; in assay [3] (first compound 0.03 µM), 0.813. The relative viability is 0.807 in assay [3] (first compound 0.09487 µM); 0.896 in assay [3] (first compound 0.3 µM); 0.364 in assay [4] (first compound 0.02 µM); 0.431 in assay [4] (first compound 0.2 µM); 0.343 in assay [4] (first compound 0.6325 µM); 0.507 in assay [4] (first compound 2 µM).
NCI-H2347: the relative viability was 0.425 in assay [1] (first compound 0.02 µM); 0.43 in assay [1] (first compound 0.2 µM); 0.438 in assay [1] (first compound 0.6325 µM); 0.415 in assay [1] (first compound 2 µM); 0.513 in assay [2] (first compound 0.009487 µM); 0.471 in assay [2] (first compound 0.03 µM). Further, the relative viability in assay [2] (first compound 0.09487 µM) was 0.476; in assay [2] (first compound 0.3 µM), 0.432; in assay [3] (first compound 0.003 µM) it was 0.561; in assay [3] (first compound 0.009487 µM), 1.01; in assay [3] (first compound 0.03 µM), 0.887; in assay [3] (first compound 0.09487 µM), 0.965. In addition, the relative viability came out at 0.991 in assay [3] (first compound 0.3 µM); 0.754 in assay [4] (first compound 0.02 µM); 0.596 in assay [4] (first compound 0.2 µM); 0.703 in assay [4] (first compound 0.6325 µM); 0.347 in assay [4] (first compound 2 µM).
Turning to NCI-H2405, the relative viability in assay [1] (first compound 0.02 µM) turned out to be 1.11; in assay [1] (first compound 0.2 µM), 1.04; in assay [1] (first compound 0.6325 µM) it was 1.04; in assay [1] (first compound 2 µM) it was 1.2; in assay [2] (first compound 0.009487 µM), 0.555; in assay [2] (first compound 0.03 µM), 0.374. Moreover, the relative viability in assay [2] (first compound 0.09487 µM) stood at 0.491; in assay [2] (first compound 0.3 µM), 0.485; in assay [3] (first compound 0.009487 µM) it was 0.768; in assay [3] (first compound 0.09487 µM) it was 0.644; in assay [3] (first compound 0.3 µM) it was 0.701; in assay [4] (first compound 0.02 µM), 0.459. For the same cell line, the results for the relative viability in assay [4] (first compound 0.2 µM), in assay [4] (first compound 0.6325 µM) and in assay [4] (first compound 2 µM) were 0.41, 0.459 and 0.572, respectively.
With NCI-H3122, the relative viability in assay [1] (first compound 0.02 µM) was 0.21; in assay [1] (first compound 0.2 µM), 0.194; in assay [1] (first compound 0.6325 µM), 0.199; in assay [1] (first compound 2 µM), 0.187; in assay [2] (first compound 0.003 µM), 0.186; in assay [2] (first compound 0.009487 µM), 0.207. The relative viability in assay [2] (first compound 0.03 µM) came to 0.2; in assay [2] (first compound 0.09487 µM), 0.167; in assay [2] (first compound 0.3 µM) it was 0.181; in assay [3] (first compound 0.003 µM), 0.877; in assay [3] (first compound 0.009487 µM), 0.774; in assay [3] (first compound 0.03 µM) it was 0.897. Further, the relative viability in assay [3] (first compound 0.09487 µM) was 0.912; in assay [3] (first compound 0.3 µM) it was 0.89; in assay [4] (first compound 0.02 µM) it was 0.572; in assay [4] (first compound 0.2 µM), 0.59; in assay [4] (first compound 0.6325 µM) it was 0.578; in assay [4] (first compound 2 µM), 0.589.
For the cell line PC-3 [JPC-3], the relative viability was 1.23 in assay [1] (first compound 0.02 µM); 1.08 in assay [1] (first compound 0.2 µM); 1.23 in assay [1] (first compound 0.6325 µM); 1.07 in assay [1] (first compound 2 µM); 0.571 in assay [2] (first compound 0.009487 µM); 0.6 in assay [2] (first compound 0.03 µM). Further, the relative viability in assay [2] (first compound 0.09487 µM) stood at 0.534; in assay [2] (first compound 0.3 µM) it was 0.55; in assay [3] (first compound 0.003 µM), 1.01; in assay [3] (first compound 0.009487 µM), 0.996; in assay [3] (first compound 0.03 µM) it was 1.02; in assay [3] (first compound 0.09487 µM), 0.907. The relative viability in assay [3] (first compound 0.3 µM) worked out at 0.956; in assay [4] (first compound 0.02 µM), 0.806; in assay [4] (first compound 0.2 µM), 0.737; in assay [4] (first compound 0.6325 µM) it was 0.884; in assay [4] (first compound 2 µM), 0.388.
PC-14: the relative viability stood at 0.142 in assay [1] (first compound 0.02 µM); 0.15 in assay [1] (first compound 0.2 µM); 0.124 in assay [1] (first compound 0.6325 µM); 0.119 in assay [1] (first compound 2 µM); 0.643 in assay [2] (first compound 0.009487 µM); 0.618 in assay [2] (first compound 0.03 µM). For the same cell line, the relative viability was 0.522 in assay [2] (first compound 0.09487 µM); 0.65 in assay [2] (first compound 0.3 µM); 0.901 in assay [3] (first compound 0.003 µM); 0.946 in assay [3] (first compound 0.009487 µM); 0.938 in assay [3] (first compound 0.03 µM); 0.892 in assay [3] (first compound 0.09487 µM). The relative viability in assay [3] (first compound 0.3 µM) is 0.833; in assay [4] (first compound 0.02 µM), 0.629; in assay [4] (first compound 0.2 µM), 0.608; in assay [4] (first compound 0.6325 µM) it was 0.625; in assay [4] (first compound 2 µM), 0.807.

These data come from the supplement of paper PMC10307832.
